Legend:
EGFR [1] = target: T1, EGFR (Homo sapiens, UniProt P00533); assay: Eurofins in vitro kinase inhibition assay; assay type: biochemical; conditions: compound 20 µM; mean (SD); above 50% significant, 25-50% weak
T1 construct: purchased DiscoverX (KINOMEscan service); host or cells: E. coli BL21-derived host (T7 phage) or HEK-293
Method: (§1) Kinase inhibition assays for EGFR, ErbB2, PI3K and BRAF were carried out by Eurofins Cerep following the protocols of Weber et al. (EGFR), Quian et al. (ErbB2), Sinnamon et al. (PI3K) and Kupcho et al. (BRAF). Briefly, except for PI3K, compounds were incubated with the respective kinase, ATP, and a substrate analog, and the effect of each compound on phosphorylation was measured. In the case of PI3K, the displacement of biotinylated PIP3 from a PIP3-binding complex by unlabelled PIP3 (produced from PIP2 by PI3K) was measured by Homogeneous Time Resolved Fluorescence (HTRF).
(§2) Finally, inhibition of the respective kinases is calculated as the percentage inhibition of control activity.
(§3) Table S3. Experimental results from the Euroﬁns assay. Inhibition of four kinases (EGFR, PI3K, ErbB2, BRAF) was measured at compound concentrations of 20 µM. Inhibition was calculated as % inhibition of control activity. According to CRO, values above 50% inhibition represent signiﬁcant inhibition, values above 25% weak inhibition effect and values below 25% as well as negative values are usually not signiﬁcant. Results are reported in mean (SD) format. […]
(§4) a Compound interfered with assay readout.

ErbB2 [2] = target: T2, ErbB2 (Homo sapiens, UniProt P04626); assay: Eurofins in vitro kinase inhibition assay; assay type: biochemical; conditions: compound 20 µM; mean (SD); above 50% significant, 25-50% weak
T2 construct: purchased DiscoverX (KINOMEscan service); host or cells: E. coli BL21-derived host (T7 phage) or HEK-293
T2 sequence (P04626 23-1255): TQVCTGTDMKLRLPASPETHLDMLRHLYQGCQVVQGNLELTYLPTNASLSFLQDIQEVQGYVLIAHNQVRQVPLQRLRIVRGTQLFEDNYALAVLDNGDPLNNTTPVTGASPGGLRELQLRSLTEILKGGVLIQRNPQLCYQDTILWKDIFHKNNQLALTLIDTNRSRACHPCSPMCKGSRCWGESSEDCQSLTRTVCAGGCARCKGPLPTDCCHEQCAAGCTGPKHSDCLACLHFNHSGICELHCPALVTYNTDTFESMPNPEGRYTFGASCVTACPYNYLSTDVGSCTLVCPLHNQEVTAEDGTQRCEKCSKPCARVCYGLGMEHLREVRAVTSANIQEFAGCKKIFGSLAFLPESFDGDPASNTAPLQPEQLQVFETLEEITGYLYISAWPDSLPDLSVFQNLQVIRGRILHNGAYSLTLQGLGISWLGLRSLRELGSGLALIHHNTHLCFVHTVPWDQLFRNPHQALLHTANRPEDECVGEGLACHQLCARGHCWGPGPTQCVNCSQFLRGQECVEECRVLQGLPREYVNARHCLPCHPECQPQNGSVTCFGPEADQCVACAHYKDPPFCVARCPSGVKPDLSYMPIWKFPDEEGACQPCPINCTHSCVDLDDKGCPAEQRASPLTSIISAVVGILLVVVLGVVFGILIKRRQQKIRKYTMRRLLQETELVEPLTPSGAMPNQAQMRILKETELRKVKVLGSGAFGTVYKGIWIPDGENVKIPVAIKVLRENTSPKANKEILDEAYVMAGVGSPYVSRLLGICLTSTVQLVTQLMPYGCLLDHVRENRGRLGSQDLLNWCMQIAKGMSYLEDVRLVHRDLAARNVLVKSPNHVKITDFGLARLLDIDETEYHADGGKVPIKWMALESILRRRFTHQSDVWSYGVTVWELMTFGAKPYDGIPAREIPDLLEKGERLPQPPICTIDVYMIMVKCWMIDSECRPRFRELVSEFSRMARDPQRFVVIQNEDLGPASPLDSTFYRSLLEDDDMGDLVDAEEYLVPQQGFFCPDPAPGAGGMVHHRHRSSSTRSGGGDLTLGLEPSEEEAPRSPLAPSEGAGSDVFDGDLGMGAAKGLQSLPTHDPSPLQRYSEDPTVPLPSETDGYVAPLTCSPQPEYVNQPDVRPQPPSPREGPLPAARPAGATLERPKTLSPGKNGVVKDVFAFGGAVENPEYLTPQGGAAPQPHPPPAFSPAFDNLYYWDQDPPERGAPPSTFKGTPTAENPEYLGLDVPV
Method: as §1, §2, §3, §4

BRAF [3] = target: T3, BRAF (Homo sapiens, UniProt P15056); assay: Eurofins in vitro kinase inhibition assay; assay type: biochemical; conditions: compound 20 µM; mean (SD); above 50% significant, 25-50% weak
T3 construct: purchased DiscoverX (KINOMEscan service); host or cells: E. coli BL21-derived host (T7 phage) or HEK-293
T3 sequence (P15056 whole entry): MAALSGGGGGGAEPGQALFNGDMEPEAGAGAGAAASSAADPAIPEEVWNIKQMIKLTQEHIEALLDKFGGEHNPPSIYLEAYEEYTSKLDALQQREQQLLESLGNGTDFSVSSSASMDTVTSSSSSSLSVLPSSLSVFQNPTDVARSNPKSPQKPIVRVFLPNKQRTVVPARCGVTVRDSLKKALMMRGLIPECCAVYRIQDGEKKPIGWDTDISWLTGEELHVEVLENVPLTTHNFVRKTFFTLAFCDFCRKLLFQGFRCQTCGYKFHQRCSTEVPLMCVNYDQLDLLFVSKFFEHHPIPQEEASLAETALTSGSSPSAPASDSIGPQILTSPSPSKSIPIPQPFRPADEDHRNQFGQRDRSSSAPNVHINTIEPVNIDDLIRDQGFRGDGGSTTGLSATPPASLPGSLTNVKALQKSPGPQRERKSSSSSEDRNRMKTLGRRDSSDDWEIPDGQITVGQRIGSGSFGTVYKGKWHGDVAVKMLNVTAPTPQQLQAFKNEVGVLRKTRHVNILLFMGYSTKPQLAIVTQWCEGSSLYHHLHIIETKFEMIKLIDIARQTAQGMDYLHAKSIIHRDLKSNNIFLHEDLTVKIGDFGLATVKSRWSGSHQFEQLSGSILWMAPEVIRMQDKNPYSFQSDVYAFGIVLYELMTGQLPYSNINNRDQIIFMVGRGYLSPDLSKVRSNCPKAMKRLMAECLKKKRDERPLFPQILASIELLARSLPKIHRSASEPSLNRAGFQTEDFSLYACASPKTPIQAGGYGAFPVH
Method: as §1, §2, §3, §4

MET = target: T4, MET (Homo sapiens, UniProt P08581); assay: DiscoverX KINOMEscan competition binding assay; conditions: compound 10 µM; lower values = higher affinity; below 35% = significant binding
T4 construct: purchased DiscoverX (KINOMEscan service); host or cells: E. coli BL21-derived host (T7 phage) or HEK-293
Method: (§5) Ligand binding experiments for the molecules selected from Profiles 1 and 2 towards nine kinases (EGFR, ErbB2, LCK, CDK2, BRAF, MET, p38α, PI3K and VEGFR2) and for molecules selected from Profiles 3 and 4 towards four kinases (EGFR, ErbB2, BRAF and VEGFR2) were carried out by DiscoverX using the supplied protocol as described in the Supplementary Materials. Briefly, ligand affinity was measured by competition with a resin-bound standard ligand and washed-off kinase concentration was determined via qPCR.
(§6) Summarizing, binding of a compound to a kinase was tested in comparison to a control compound (see Table S2). […]
(§7) 1.1. DiscoverX kinase assay
(§8) For most assays, kinase-tagged T7 phage strains were grown in parallel in 24-well blocks in an E.coli host derived from the BL21 strain. E.coli were grown to log-phase and infected with T7 phage from a frozen stock (multiplicity of infection = 0.4) and incubated with shaking at 32°C until lysis (90-150 minutes). The lysates were centrifuged (6,000 x g) and ﬁltered (0.2µm) to remove cell debris.
(§9) The remaining kinases were produced in HEK-293 cells and subsequently tagged with DNA for qPCR detection. Streptavidin-coated magnetic beads were treated with biotinylated small molecule ligands for 30 minutes at room temperature to generate afﬁnity resins for the kinases. The liganded beads were blocked with excess biotin and washed with blocking buffer (SeaBlock [Pierce], 1% BSA, 0.05% Tween 20, 1 mM DTT) to remove unbound ligands and to reduce non-speciﬁc phage binding. Binding reactions were assembled by combining kinases, liganded afﬁnity beads, and test compounds in 1x binding buffer (20% SeaBlock, 0.17x PBS, 0.05% Tween 20, 6 mM DTT). Test compounds were prepared as 40x stocks in 100% DMSO and directly diluted into the assay. All reactions were performed in polypropylene 384-well plates in a ﬁnal volume of 0.02 ml. The assay plates were incubated at room temperature with shaking for 1 hour and the afﬁnity beads were washed with wash buffer (1x PBS, 0.05% Tween 20). The beads were then re-suspended in elution buffer (1x PBS, 0.05% Tween 20, 0.5 µM non-biotinylated afﬁnity ligand) and incubated at room temperature with shaking for 30 minutes. The kinase concentration in the eluates was measured by qPCR. […]
(§10) Table S2. Experimental % control values from the DiscoverX kinase assay. Compounds were tested against the nine kinases EGFR, ErbB2, LCK, CDK2, BRAF, MET, p38α, PI3K and VEGFR2, unless otherwise stated. Binding of kinase and compound were tested at a compound concentration of 10 µM and in comparison to a control compound. Lower values indicate a higher afﬁnity of the compound to the protein and values below 35% indicate signiﬁcant binding according to information of the CRO. […]
(§11) a Compounds were only tested against four kinases (EGFR, ErbB2, BRAF and VEGFR2). b Compound was selected independently from two docking proﬁles and tested separately during

EGFR [4] = target: T1, EGFR; assay: DiscoverX KINOMEscan competition binding assay; conditions: compound 10 µM; lower values = higher affinity; below 35% = significant binding
Method: as §5, §6, §7, §8, §9, §10, §11

CDK2 = target: T5, CDK2 (Homo sapiens, UniProt P24941); assay: DiscoverX KINOMEscan competition binding assay; conditions: compound 10 µM; lower values = higher affinity; below 35% = significant binding
T5 construct: purchased DiscoverX (KINOMEscan service); host or cells: E. coli BL21-derived host (T7 phage) or HEK-293
Method: as §5, §6, §7, §8, §9, §10, §11

LCK = target: T6, LCK (Homo sapiens, UniProt P06239); assay: DiscoverX KINOMEscan competition binding assay; conditions: compound 10 µM; lower values = higher affinity; below 35% = significant binding
T6 construct: purchased DiscoverX (KINOMEscan service); host or cells: E. coli BL21-derived host (T7 phage) or HEK-293
Method: as §5, §6, §7, §8, §9, §10, §11

p38α = target: T7, p38α (Homo sapiens, UniProt Q16539); assay: DiscoverX KINOMEscan competition binding assay; conditions: compound 10 µM; lower values = higher affinity; below 35% = significant binding
T7 construct: purchased DiscoverX (KINOMEscan service); host or cells: E. coli BL21-derived host (T7 phage) or HEK-293
T7 sequence (Q16539 whole entry): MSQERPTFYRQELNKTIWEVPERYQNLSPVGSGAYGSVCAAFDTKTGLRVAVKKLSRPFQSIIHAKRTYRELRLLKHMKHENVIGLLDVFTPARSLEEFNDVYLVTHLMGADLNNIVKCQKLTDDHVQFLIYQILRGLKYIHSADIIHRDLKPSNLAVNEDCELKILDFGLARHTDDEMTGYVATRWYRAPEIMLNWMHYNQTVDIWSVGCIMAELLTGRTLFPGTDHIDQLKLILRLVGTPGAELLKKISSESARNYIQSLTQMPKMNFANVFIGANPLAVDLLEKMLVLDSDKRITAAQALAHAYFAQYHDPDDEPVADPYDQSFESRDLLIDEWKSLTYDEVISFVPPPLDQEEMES
Method: as §5, §6, §7, §8, §9, §10, §11

ErbB2 [5] = target: T2, ErbB2; assay: DiscoverX KINOMEscan competition binding assay; conditions: compound 10 µM; lower values = higher affinity; below 35% = significant binding
Method: as §5, §6, §7, §8, §9, §10, §11

VEGFR2 = target: T8, VEGFR2 (Homo sapiens, UniProt P35968); assay: DiscoverX KINOMEscan competition binding assay; conditions: compound 10 µM; lower values = higher affinity; below 35% = significant binding
T8 construct: purchased DiscoverX (KINOMEscan service); host or cells: E. coli BL21-derived host (T7 phage) or HEK-293
T8 sequence (P35968 20-1356): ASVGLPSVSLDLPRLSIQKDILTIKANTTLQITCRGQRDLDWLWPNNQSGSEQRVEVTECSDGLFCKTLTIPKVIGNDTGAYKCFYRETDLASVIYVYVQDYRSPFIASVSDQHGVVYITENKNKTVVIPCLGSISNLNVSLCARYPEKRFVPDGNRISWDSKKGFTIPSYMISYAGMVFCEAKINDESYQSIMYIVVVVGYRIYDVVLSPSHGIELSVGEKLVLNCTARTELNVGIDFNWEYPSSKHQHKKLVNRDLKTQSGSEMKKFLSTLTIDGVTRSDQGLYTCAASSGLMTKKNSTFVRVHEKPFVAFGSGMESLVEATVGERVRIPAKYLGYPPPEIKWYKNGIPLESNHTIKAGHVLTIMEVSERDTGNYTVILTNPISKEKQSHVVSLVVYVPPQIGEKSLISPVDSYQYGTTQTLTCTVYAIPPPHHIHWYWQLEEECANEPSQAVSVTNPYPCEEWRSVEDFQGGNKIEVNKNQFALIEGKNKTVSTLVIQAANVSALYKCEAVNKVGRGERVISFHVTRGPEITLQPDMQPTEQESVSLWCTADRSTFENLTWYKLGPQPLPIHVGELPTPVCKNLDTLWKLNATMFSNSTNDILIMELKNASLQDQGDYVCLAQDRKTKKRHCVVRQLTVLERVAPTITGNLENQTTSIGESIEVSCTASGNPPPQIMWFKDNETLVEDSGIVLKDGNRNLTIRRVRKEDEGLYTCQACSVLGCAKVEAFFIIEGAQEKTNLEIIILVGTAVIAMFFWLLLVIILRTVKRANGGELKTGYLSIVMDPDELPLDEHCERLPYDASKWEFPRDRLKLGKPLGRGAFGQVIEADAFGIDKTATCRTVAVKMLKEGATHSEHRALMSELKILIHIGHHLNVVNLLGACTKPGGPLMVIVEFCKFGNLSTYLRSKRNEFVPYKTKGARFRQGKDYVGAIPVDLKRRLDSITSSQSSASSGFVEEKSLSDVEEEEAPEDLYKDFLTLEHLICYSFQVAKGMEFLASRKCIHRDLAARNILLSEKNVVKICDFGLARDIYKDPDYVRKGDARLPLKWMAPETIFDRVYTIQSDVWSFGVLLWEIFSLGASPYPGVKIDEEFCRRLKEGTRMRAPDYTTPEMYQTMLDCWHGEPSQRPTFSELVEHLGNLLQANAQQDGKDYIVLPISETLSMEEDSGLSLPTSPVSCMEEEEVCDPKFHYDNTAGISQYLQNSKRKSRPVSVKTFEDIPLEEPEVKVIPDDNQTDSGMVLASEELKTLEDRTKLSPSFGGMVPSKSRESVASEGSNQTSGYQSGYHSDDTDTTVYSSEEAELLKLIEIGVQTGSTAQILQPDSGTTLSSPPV
Method: as §5, §6, §7, §8, §9, §10, §11

BRAF [6] = target: T3, BRAF; assay: DiscoverX KINOMEscan competition binding assay; conditions: for % control, BRAF (DiscoverX): compound 10 µM, lower values = higher affinity, below 35% = significant binding
Method: as §5, §6, §7, §8, §9, §10, §11

PI3K [7] = target: T9, PI3K (Homo sapiens, UniProt P42336); assay: Eurofins in vitro kinase inhibition assay (HTRF, PIP3 displacement); assay type: biochemical; design: purchased Eurofins Cerep (contract assay); conditions: compound 20 µM; mean (SD); above 50% significant, 25-50% weak
Method: as §1, §2, §3, §4

PI3K [8] = target: T9, PI3K; assay: DiscoverX KINOMEscan competition binding assay; design: purchased DiscoverX (KINOMEscan service); host or cells: E. coli BL21-derived host (T7 phage) or HEK-293; conditions: compound 10 µM; lower values = higher affinity; below 35% = significant binding
Method: as §5, §6, §7, §8, §9, §10, §11
Target sequence in this assay (P42336 whole entry): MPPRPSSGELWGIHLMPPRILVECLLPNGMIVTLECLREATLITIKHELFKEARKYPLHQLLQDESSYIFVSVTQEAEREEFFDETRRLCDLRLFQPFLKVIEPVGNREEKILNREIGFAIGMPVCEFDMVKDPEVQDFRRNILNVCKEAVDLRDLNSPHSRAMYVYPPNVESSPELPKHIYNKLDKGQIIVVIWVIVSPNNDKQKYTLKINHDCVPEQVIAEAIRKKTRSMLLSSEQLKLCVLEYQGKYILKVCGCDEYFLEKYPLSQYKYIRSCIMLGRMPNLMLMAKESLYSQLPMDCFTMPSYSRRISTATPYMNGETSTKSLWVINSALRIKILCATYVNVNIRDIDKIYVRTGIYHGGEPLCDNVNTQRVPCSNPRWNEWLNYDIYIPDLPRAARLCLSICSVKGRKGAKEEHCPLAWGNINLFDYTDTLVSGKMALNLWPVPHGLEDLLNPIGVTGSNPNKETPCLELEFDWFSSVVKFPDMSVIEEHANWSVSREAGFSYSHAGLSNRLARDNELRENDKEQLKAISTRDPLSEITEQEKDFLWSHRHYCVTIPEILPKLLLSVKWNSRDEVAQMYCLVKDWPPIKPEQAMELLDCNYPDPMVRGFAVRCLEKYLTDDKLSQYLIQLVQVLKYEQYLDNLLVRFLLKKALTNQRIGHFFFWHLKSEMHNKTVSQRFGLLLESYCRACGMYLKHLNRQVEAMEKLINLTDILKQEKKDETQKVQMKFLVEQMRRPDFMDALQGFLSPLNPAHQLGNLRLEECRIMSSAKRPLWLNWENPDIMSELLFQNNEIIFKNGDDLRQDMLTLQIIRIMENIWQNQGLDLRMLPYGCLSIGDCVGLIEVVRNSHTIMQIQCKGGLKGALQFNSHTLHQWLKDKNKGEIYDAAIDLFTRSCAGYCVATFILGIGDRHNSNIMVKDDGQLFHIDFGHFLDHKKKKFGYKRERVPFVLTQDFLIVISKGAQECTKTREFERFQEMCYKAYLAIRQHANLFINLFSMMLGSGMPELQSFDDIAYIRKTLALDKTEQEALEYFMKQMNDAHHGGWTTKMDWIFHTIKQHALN

Row | SMILES | % inhibition of control activity, EGFR (Eurofins) (EGFR [1]) | % inhibition of control activity, ErbB2 (Eurofins) (ErbB2 [2]) | % inhibition of control activity, BRAF (Eurofins) (BRAF [3]) | % control, MET (DiscoverX) (MET) | % control, EGFR (DiscoverX) (EGFR [4]) | % control, CDK2 (DiscoverX) (CDK2) | % control, LCK (DiscoverX) (LCK) | % control, p38α (DiscoverX) (p38α) | % control, ErbB2 (DiscoverX) (ErbB2 [5]) | % control, VEGFR2 (DiscoverX) (VEGFR2) | % control, BRAF (DiscoverX) (BRAF [6]) | % inhibition of control activity, PI3K (Eurofins) (PI3K [7]) | % control, PI3K (DiscoverX) (PI3K [8]) | % ctrl. activity at 10 µM, BRAF (DiscoverX), printed as symbol (BRAF [6]; 10 µM, Table 3)
1 | O=C(O)c1cncnc1NCc1nc(-c2cnccn2)n[nH]1 [DS74417] | 18 (3.2) % inhibition | -2.8 (0.7) % inhibition | -0.3 (1.6) % inhibition | 100 % control | 89 % control | 100 % control | 100 % control | 100 % control | 100 % control | 100 % control | 86 % control | 2.1 (0.4) % inhibition | 97 % control | 
2 | Nc1nc(N2CCC[C@H](Cc3nc4ccccc4[nH]3)C2)c2nc[nH]c2n1 [K001MM010] |  |  |  |  | 95 % control |  |  |  | 90 % control | 97 % control | 100 % control |  |  | 
3 | COCCNC(=O)NC(C)Cc1ccc(O)cc1 (stereo not shown) [K001MM004] |  |  |  |  | 100 % control |  |  |  | 100 % control | 100 % control | 100 % control |  |  | 
4 | Cc1cc(COC(=O)c2cnc3c(cnn3Cc3ccccc3)c2)on1 [K001MM013] |  |  |  |  | 100 % control |  |  |  | 94 % control | 90 % control | 100 % control |  |  | 
5 | CCOCC(C)(C)NC(=O)Nc1cc(F)ccc1OC [K001MM006] |  |  |  |  | 96 % control |  |  |  | 100 % control | 100 % control | 100 % control |  |  | 
6 | CC1Oc2ccc(Nc3ncnc4c3oc3ccccc34)cc2NC1=O (stereo not shown) [K001MM011] |  |  |  |  |  |  |  |  |  | 99 % control | 100 % control |  |  | – ^d (percent control activity ≥ 99%, i.e., no measurable inhibition)
7 | Cc1ccccc1Cn1cnc2c(nnn2-c2ccccc2)c1=O [K001MM003] |  |  |  |  | 99 % control |  |  |  | 99 % control | 100 % control | 95 % control |  |  | 
8 | CCCCn1nnnc1CN1CCc2nn(CC)c(=O)cc2C1 [K001MM005] |  |  |  |  | 100 % control |  |  |  | 100 % control | 100 % control | 99 % control |  |  | 
9 | CC(C)OCC(O)CN1CCN(C(=O)c2cccc(Cl)c2)CC1 (stereo not shown) [K001MM002] |  |  |  |  | 97 % control |  |  |  | 92 % control | 100 % control | 89 % control |  |  | 
10 | Cc1ccc(NC(=O)COC(=O)c2cc(=O)[nH]c3ccccc23)cc1 [K001MM012] |  |  |  |  | 90 % control |  |  |  | 100 % control | 91 % control | 100 % control |  |  | 
11 | Cc1cccc(NC(=O)N[C@H](C)[C@H](C)N2CCOCC2)n1 [K001MM007] |  |  |  |  | 90 % control |  |  |  | 94 % control | 100 % control | 87 % control |  |  | 
12 | COCCCNC(=O)c1nc2c3c4c(sc3ncn2n1)CC[C@H](C)C4 [DS31939] | 9.6 (0.2) % inhibition | -1.7 (0.8) % inhibition | -27.8 (10.8) % inhibition | 100 % control | 100 % control | 100 % control | 99 % control | 100 % control | 100 % control | 100 % control | 100 % control |  | 73 % control | 
13 | CCc1nccc(-c2nccn2C(Cn2cccn2)c2ccccc2)n1 (stereo not shown) [DS23815] | 10.7 (0.4) % inhibition | -7.2 (5.7) % inhibition | -19.7 (2.4) % inhibition | 99 % control | 100 % control | 99 % control | 100 % control | 100 % control | 100 % control | 100 % control | 99 % control |  | 97 % control | 

From publication PMC7865522, “Analyzing Kinase Similarity in Small Molecule and Protein Structural Space to Explore the Limits of Multi-Target Screening” (Molecules, 2021)
